Active and inactive are the calls of the source. No cut-off for these calls is given here.
Key:
[1] = test system: 3Y1 cell line; experiment: Cytotoxicity against rat 3Y1 cells after 72 hrs by MTT assay; type: functional, cell-based; conditions: 3Y1, 72 h
[2] = test system: 3Y1 cell line; experiment: Induction of morphological changes in rat 3Y1 cells assessed as elongation of cells; type: functional, cell-based

SMILES | IC50 [1] [nM] | Activity [2]
C/C1=C\CC(O)C(C)C(C(NC(=O)C(C)C(O)CCC(C)C(O)/C(C)=C/C(C)(C)C(O)C(CC(C)C)NC(=O)/C=C/C(C)(C)C(=O)C(C)C(O)C(C)C)C(C)O)OC(=O)[C@H](O)[C@H](C(=O)O)NC(=O)/C=C/C=C/C=C/C=C/C=C/CC2CC(C)CC(CC(O)C(C)C(O)/C(C)=C/C(C)C1O)O2 (stereo partly drawn) | 4.1 | Active
CO/C1=C\C(C)=C\[C@@H](C)[C@@H](O)[C@@H](C)C/C(C)=C/C=C/[C@H](OC)[C@@H]([C@@H](C)[C@@H](O)[C@H](C)[C@@]2(O)C[C@@H](O)[C@H](C)[C@@H](C(C)C)O2)OC1=O |  | Active

Reference: ChEMBL document CHEMBL4145563, “Poecillastrin H, a Chondropsin-Type Macrolide with a Conjugated Pentaene Moiety, from a Characella sp. Marine Sponge” (J Nat Prod, 2018)
